These results are taken from US12128037B2 (priority 2017, dated 2024).

SMILES strings stand for the structures. In brackets after ≈: the same amount, converted by molar mass. Several values for one entry are separate records, joined by “and”; a condition that tells them apart may be missing. Identical values can stand only once. Like-named read-outs stand apart in the source and are kept apart here.

Data set [1] can be described thus: Gravimetric vapour sorption (GVS), hygroscopicity. It counts as physicochemical. As to conditions: 25° C. On the procedure: Gravimetric vapour sorption (GVS) was used to determine the hygrocopicity of the samples: experiments were performed at 25° C. using a DVS 1 instrument from SMS Ltd to record adsorption-desorption isotherms using different methods, the main features being: a single sorption/desorption cycle from 0 to 80% RH in 10% RH steps with a dm/dt trigger value of 0.002% (dm/dt=change in mass with time—when the balance stability is within this value the next step is automatically started, however, if those conditions are not achieved there is a default maximum time for each step of 6 hours). The sample amount used was 1-3 mg.

On the set-up of data set [2]: species or system male Wistar (Hannover) rats. To be noted: rat, in vivo, iv. On the procedure:
(§1) In accordance with Swedish legislations for preclinical in vivo studies in rodents and following evaluation and approval of the experimental procedures the local ethical committee (M388-12), following acclimatization to the housing conditions for a minimum of 7 days after arrival, male Wistar (Hannover) rats (Taconic, Denmark), average weight 180-200 g; average age 8-10 weeks, were treated with test items (see Table 2); 12-16 h prior to dosing all food except for an amount equivalent to a half day consumption was removed. The test items were administrated using a soft gavage tube (p.o.) or by injecting the test item in the tail vein (i.v). The volume given was 10 mL/kg (p.o.) or 1 mL/kg (i.v.). Before i.v administration the rats were anesthetized using isoflurane. The rats were conscious during sample collection and the blood was taken from the sub-lingual vein. Blood samples were collected from each rat over a period of up to 24 h. At each time point two aliquots of 50 μL each was added to a vial containing 150 μL of sterile water. The samples were mixed immediately and stored in −18° C. until preparation for bioanalysis commenced. All formulations were prepared on the same day that dosing took place. The body weight of the rat was recorded before dosing. The weight of the syringe was recorded before and after administration to allow calculation of the actual amount of test sample delivered. The actual doses were used during the evaluation of the data.
(§2) The plasma levels of sulfasalazine were determined using LCMS/MS in mrm (multiple reaction monitoring) mode.
Samples and standards were injected by a HTC PAL from CTC analytics into an LC system from Shimadzu consisting of a high pressure gradient system of two LC-10 AD pumps controlled by a SCL-10A controller from Shimadzu. The samples were separated using reverse-phase chromatography with gradient elution at a flow rate of 0.8 mL/min. Mobile phases were A:94.9/5/0.1 water/acetonitrile/formic acid and B:[…] water/acetonitrile/formic acid. Gradient started at 0% B and increased linearly to 100% B in 4 minutes, 100% B was kept for 0.5 minutes and then the system returned to 0% B in 0.1 minutes. The system was equilibrated for 1.4 minutes until the total run time of 6 minutes. The eluent was analyzed by a Quattro Ultima from Micromass equipped with an electrospray ion source. Data was collected and calibrations were calculated by MassLynx 4.0 software. […] The eluent was ionized by negative ion electrospray and the mrm transition from 397 to 197 m/z was monitored. […]
Positive and negative mode MS/MS was employed for sulfasalazine. […] Samples with analyte concentrations above the upper limit of quantification were diluted with matrix to reach within the assay range. […]

A short description of data set [3]: Pharmacokinetics of sulfasalazine in rat, oral administration. In kind it is in vivo, male Wistar (Hannover) rats. As to conditions: 60 mg/kg. On the procedure:
as §1, §2
Samples and standards were injected by a HTC PAL from CTC analytics into an LC system from Shimadzu consisting of a high pressure gradient system of two LC-10 AD pumps controlled by a SCL-10A controller from Shimadzu. The samples were separated using reverse-phase chromatography with gradient elution at a flow rate of 0.8 mL/min. Mobile phases were A:94.9/5/0.1 water/acetonitrile/formic acid and B:[…] water/acetonitrile/formic acid. Gradient started at 0% B and increased linearly to 100% B in 4 minutes, 100% B was kept for 0.5 minutes and then the system returned to 0% B in 0.1 minutes. The system was equilibrated for 1.4 minutes until the total run time of 6 minutes. The eluent was analyzed by a Quattro Ultima from Micromass equipped with an electrospray ion source. Data was collected and calibrations were calculated by MassLynx 4.0 software. […] The eluent was ionized by negative ion electrospray and the mrm transition from 397 to 197 m/z was monitored.
The diluted blood sample (50 μL blood, 150 μL water) was thawed and mixed. 400 μL of Acetonitrile, to precipitate the protein was added and mixed again. The sample was centrifuged at 5,000 g for 5 minutes. 100 μL of the supernatant was transferred to a 300 μL glass vial and 100 μL of water was added to reduce the acetonitrile concentration.
Positive and negative mode MS/MS was employed for sulfasalazine. The concentration of the standard curve was in the range from 5 nM to 15625 nM. Samples with analyte concentrations above the upper limit of quantification were diluted with matrix to reach within the assay range. A non-compartmental analysis (NCA) was performed using the Phoenix WinNonLin analysis tool.

The nature of data set [4]: Solubility in water or FaSSIF-V2 medium (Example 8, HPLC). On the procedure: The mobile phase consists of mobile phase (A): 1.13 g sodium dihydrogen phosphate and 2.5 g sodium acetate are dissolved in 1000 mL purified water. The pH is afterwards adjusted with acetic acid (100%) to 4.8. and mobile phase (B): 1 part mobile phase A is mixed with 4 parts of methanol for chromatography. The flow rate was 1.0 mL/min, injection volume 5 μL and detection wavelengths 320 nm (HP DAD series 1100). Run time is 10 min. Quantitation was performed using external standard methodology. The assay method has been validated with respect to selectivity, repeatability and linearity. Samples are prepared with dilute ammonia R3 PhEur.
The saturated solutions were filtrated using centrifuge filters (Nylon, […]) and the clear supernatants were respectively injected either directly or after dilution with dilute ammonia R3 PhEur.

The conditions of data set [5]: cited from earlier work.
A short description of data set [6]: Transport across Caco 2 cell monolayer. It counts as in vitro ADME. As to conditions: human, direction ab (apical to basal), 180 min incubation.
For data set [7] the following is noted: cited from earlier work. The source holds these as a separate data set.
The subject of data set [8] is binding of TNF-alpha to its receptor. To be noted: 125I-TNF-alpha displacement; cited from earlier work.
A short description of data set [9]: Solubility in de-ionized water (HPLC). As to conditions: 24 °C, thermodynamic from solid.
Description: The flow rate was 1.0 mL/min, injection volume 5 μL and detection wavelengths 358 nm (for assay) and 260 nm (for chromatographic purity). Quantitation was performed using external standard methodology. The assay method has been validated with respect to selectivity, repeatability and linearity.
Setting [10] is: male, Wistar (Hannover), whole blood.

On to `CCNCC.O=C(O)c1cc(N=Nc2ccc(S(=O)(=O)Nc3ccccn3)cc2)ccc1O` [Form A diethylamine salt, Diethylamine 2-hydroxy-5-[2-[4-[(2-pyridinylamino)sulfonyl]phenyl]diazenyl]-benzoate], for which the “water vapor uptake (GVS)” value in data set [1] (30% RH) is given as 0.3 % w/w; in [1] (80% RH), 0.5 % w/w.

For `CNCC(O)C(O)C(O)C(O)CO.O=C(O)c1cc(N=Nc2ccc(S(=O)(=O)Nc3ccccn3)cc2)ccc1O` [Form A meglumine salt], the “water vapor uptake (GVS)” value in [1] (30% RH, listed as Example 1) is below 0.4 % w/w; in data set [1] (30% RH, listed as Example 2), 0.4 % w/w; in data set [1] (80% RH, listed as Example 1) it was below 0.9 % w/w; in data set [1] (80% RH, listed as Example 2), 1.1 % w/w. In addition, the results for the AUCinf obs in data set [2] (1 mg/kg) and in data set [2] (5 mg/kg) were 1,661 ± 191 h*nM and 11,889 ± 735 h*nM, respectively. Moreover, the T1/2 in data set [2] (1 mg/kg) was 1.2 h; in data set [2] (5 mg/kg), 1.3 h; in data set [3] (in vivo), 1.9 ± 0.5 h. In [3] (in vivo), this compound returned an F of 3.8%. Further, the Solubility (in general, the concentration that dissolves in the medium under given conditions) in data set [4] (pH 6.8) stood at 60.3 mg/mL.

As to `Nc1ccc(S(=O)(=O)Nc2ccccn2)cc1` [sulfapyridine], in [5] (metabolite formed from non-absorbed sulfasalazine by gut flora), the systemic bioavailability result is given as “about 60%”.

In the case of `O=C(O)c1cc(/N=N/c2ccc(S(=O)(=O)Nc3ccccn3)cc2)ccc1O` [sulfasalazine, 2-hydroxy-5-[2-[4-[(2-pyridinylamino)sulfonyl]phenyl]diazenyl]-benzoic acid], the Papp A→B – broadly, how fast a substance crosses the layer from the apical side – at 180 min, 50 μg/mL in data set [6] (50 μg/mL) turned out to be 1.39 ×10⁻⁶ cm/s. Further, the Papp A→B at 180 min, 200 μg/mL in data set [6] (200 μg/mL) worked out at 1.16 ×10⁻⁶ cm/s. This compound gave a F in [3] (male, Wistar (Hannover), in vivo) of 2.5%. Moreover, the peak level in data set [3] (setting [10]) (Cmax) was 700 ± 110 nM. Further, the Tmax – broadly, the time from dosing to the highest level – in [3] (setting [10]) is 43.2 ± 34.2 min. Also, the AUC in data set [3] (male, Wistar (Hannover), whole blood, p.o., read-out: AUC0.1, 5 h obs) was 0.81 ± 0.13 µM·h; in data set [3] (male, Wistar (Hannover), whole blood, p.o., read-out: AUCall), 2.81 ± 0.41 µM·h. Further, the half-life (in general, how long it takes for the measured level to halve) is 120 ± 30 min in data set [3] (male, Wistar (Hannover), whole blood, p.o.) and “approximately 7.6±3.6 hours” in data set [5] (intravenously administered). For the same compound, the Solubility was 0.78 mg/mL (≈ 1960 µM) in data set [4] (FaSSIF-V2, room temperature (20-25° C.), saturated solution) and 60 µg/mL (≈ 151 µM) in data set [9]. The concentration in solution in data set [4] (water, pH 5.9, water, thermodynamic from solid) (solubility at 24 h) was 60 µg/mL (≈ 151 µM). Moreover, the “solubility, United States Pharmacopoeia class practically insoluble” value in [7] (USP classification) was below 0.1 mg/mL. The “solubility in de-ionized water” value in data set [7] (de-ionized water at 24° C., literature value) is 0.03 mg/mL and 0.031 mg/mL. In data set [7] (water), the solubility in water entry is given as “less than 5 mg/100 ml”. The “time of median peak concentration” value in data set [5] (man, oral) was 6 h. In addition, in data set [8], the “binding of TNF-alpha to its receptor” value is given as “inhibits”.
